# Experimental data from patent US20210220450A1, “TREATMENT OF AN IOP CONDITION” (The Research Foundation for The State University of New York, priority 2013, published 2021).
# Experiments:
# Tg-MYOCY437H mice = experiment: Outflow facility in Tg-MYOCY437H mouse eyes (Example 19); format: in vivo
# Protocol: To investigate whether corticosteroids affect outflow facility in Tg-MYOCY437H mice, animals received bilateral injections (20 μl) with either triamcinolone acetonide (TA) (40 mg/ml, Kenalog-40; Bristol-Myers Squibb, NY, USA) suspension or phosphate-buffered saline (PBS) (Gibco, ThermoFisher Scientific, Waltham, Mass., USA) subconjunctivally using a 100 μL Hamilton syringe with a 26-gauge needle (Precision Glide, Becton Dickinson & CO, Franklin Lakes, N.J., USA). They were euthanized one week later for outflow facility measurement.
# To investigate whether tPA can affect outflow facility in Tg-MYOCY437H mice, and determine whether tPA enzymatic action is necessary for such an effect, intravitreal injections were performed using a 10 μL Hamilton syringe with 36-gauge stainless steel needles (WPI Inc, Sarasota, Fla., USA). […] Animals were sacrificed either two or five days after intravitreal injections for outflow facility measurement. […]
# Mouse eyes were enucleated immediately after euthanasia. Outflow facility was determined using a microfluidic flow sensor (0.07-1.5 uL/min, MFS1; Elveflow, Paris, France) and constant pressure method, as previously described (Hu, Barron et al. 2019). […] Any eyes that developed visible leaks or that had pressure-flow correlations with […] were excluded from analysis but were used for RNA quantification.
# Mmp-2, Mmp-9, Mmp-13 [1] = experiment: Mmp expression in protein treated PlatKO eyes (Example 14); format: in vivo, mouse; conditions: vs BSA treated eyes
# Protocol: Tissue collection and confirmation of transgene expression: After outflow facility determination in adenovirus treated mice, mCherry expression in the TM was determined in all AdPLAT and AdPLATNE injected eyes. The eyes were dissected on ice to isolate a rim of tissue containing the TM by removing most of the iris and ciliary body. […] After observation, dissected rims were immediately immersed in RNA stabilizing agent (RNAlater, Invitrogen by ThermoFisher Scientific, Waltham, Mass., USA) and frozen. For TM tissue collection following protein treatment, all eyes were flash frozen in liquid nitrogen and subsequently dissected on ice to obtain the angle ring containing the TM tissues as previously described^43. Dissected TM tissues were immersed in RNAlater solution and then snap-frozen and stored at −80° C. until RNA extraction.
# RNA isolation and quantitative real time PCR: Tissue collected was pooled (four eyes) and homogenized in TRIzol reagent (Life Technologies, Carlsbad, Calif., USA). RNA was isolated per the manufacturer's instructions and resuspended in nuclease-free water. RNA concentration was determined with a Nanodrop ND-1000 Spectrophotometer (ThermoFisher Scientific, Waltham, Mass., USA). cDNA was synthesized by using High-Capacity cDNA Reverse Transcription Kit (Applied Biosystems, Waltham, Mass., USA) according to manufacturer's protocol. Quantitative real-time PCR (qRT-PCR) was performed by using Green-2-Go qPCR Mastermix-ROX (BioBasic, Amherst, N.Y., USA) on a QuantStudio 6 Flex thermal cycler (Applied Biosystems, Carlsbad, Calif., USA).
# mRNA expression of sheep PLAT and mouse Mmp-2, Mmp-9, and Mmp-13 in angle ring tissues was determined. Primers were designed by using Primer-BLAST (https://www.ncbi.nlm.nih.gov/tools/primer-blast/index.cgi?LINK_LOC=BlastHome; in the public domain) and their specificity was confirmed by the presence of a single band of the expected size on agarose gel electrophoresis. […] The relative fold change was calculated by using the ΔΔCt method. […]
# [2] = tested on: MMP-1, MMP-2, MMP-9, MMP-13, PLAT, PAI-1 mRNA; experiment: qRT-PCR gene expression in sheep TM and ciliary processes after tPA (Examples 6, 7); format: in vivo
# Text: Methods. Tissue Collection and Isolation of RNA. After animals were euthanized, eyes were immediately enucleated. Eyes were then opened anterior to the equator using a razor blade. The lens was removed from the anterior part, and the tissue was immersed in RNA stabilizing agent (RNAlater; Ambion, Carlsbad, Calif.) and placed […] for transportation to the United States. Upon arrival in the United States, TM and ciliary processes (CP) were dissected on ice in the presence of RNA stabilizing agent as described previously. Dissected tissue was homogenized, and total RNA was extracted using TRIzol reagent (Gibco, Carlsbad, Calif.). Briefly, the tissue was homogenized in TRIzol, and chloroform was added to separate proteins from RNA. After centrifugation, the RNA-containing supernatant was aspirated. The RNA was precipitated with isopropanol, washed with 75% ethanol, treated with DNase, and column purified using a commercial kit (RNAeasy Mini Kit; Qiagen, Valencia, Calif.) in accordance with the manufacturer's instructions. RNA concentrations were determined with a spectrophotometer (Nanodrop; Thermo Scientific, Wilmington, Del.) and the 260:280-nm absorbance ratio was calculated to determine RNA purity.
# Quantitative Real-Time PCR (qRT-PCR) The RNA samples were reverse transcribed with random hexamers to cDNA using a reverse transcription kit (Quantitect; Qiagen) in accordance with the manufacturer's instructions. Quantitative RT-PCR was performed using a commercial kit (SYBR Green RT-PCR Reagents Kit; Applied Biosystems, Carlsbad, Calif.) in an ABI PRISM 7900HT sequence detector (Applied Biosystems). […] Plasminogen activator inhibitor 1 (PAI-1) mRNA expression was measured in both TM and ciliary processes tissues. Relative quantification of gene expression was performed using the standard curve method. […] The DCt was calculated as the difference in Ct values derived from the target gene and the 18S gene. The DDCt was calculated as DCt of the normalized assayed genes in the treated samples minus DCt of normalized assayed genes in the naïve control samples. […]
# Mmp-2, Mmp-9, Mmp-13 [3] = experiment: Mmp expression in TA and protein treated C57BL/6J eyes (Example 13); format: in vivo, mouse; conditions: vs BSA treated controls
substance,measurement,setting,value
tissue plasminogen activator [tPA],improvement of outflow facility,Tg-MYOCY437H mice,~31%
same,Mmp-2 expression,"Mmp-2, Mmp-9, Mmp-13 [1]",not significantly different
same,Mmp-9 expression,"Mmp-2, Mmp-9, Mmp-13 [1]",significant upregulation
same,Mmp-13 expression,"Mmp-2, Mmp-9, Mmp-13 [1]",significant upregulation
same,PLAT expression,[2]; sheep TM (FIG. 7),down-regulates
same,expression of MMP1 and MMP9,[2]; sheep TM (FIG. 7),up-regulates
same,"expression of MMP1, MMP2, MMP9, MMP13 and PAI-1",[2]; sheep trabecular meshwork and ciliary processes,up-regulates
same,"Mmp-2, Mmp-9 and Mmp-13 expression","Mmp-2, Mmp-9, Mmp-13 [3]",significant upregulation
